Source: patent US20040254128A1, “Treatment and prevention of heat shock protein-associated diseases and conditions” (priority 2001, published 2004)
Read-outs that look alike come from different tables or passages of the source.

How the values were obtained:
[1] = test system: LPS endotoxin (Escherichia coli 0111:B4)-induced plasma TNF-α; conditions: for TNF-α at 1 hr: plasma 1 hr after LPS; for TNF-α at 2 hr: plasma 2 hr after LPS
Procedure: LPS endotoxin (300 ng/kg) was injected intravenously into untreated dogs (◯) or simultaneously with 0.1 mg/kg E5564 (Δ) one hour after E5564 administration (□) or three hours after E5564 administration (●). Blood was drawn and analyzed for TNF-α concentration by bioassay, as is described in the Appendix, below. Each value represents the mean±S.E.M. of four animals.
In both assays, activity of the antagonist is quantitated by analysis of the cytokines induced by LPS administration.
Escherichia coli LPS (Serotype 0111:B4; phenol extracted, Cat. # L-2630) was purchased from Sigma Chem. Co. Ltd., St. Louis, Mo., USA. Lyophylized E5564 was solubilized in 5 ml of sterile water (Otsuka Pharm. Co. Ltd., Tokyo, Japan). LPS was weighed to an accuracy of 1/10 mg and solubilized in 5% glucose (Otsuka Pharm. Co. Ltd., Tokyo, Japan). The LPS solution was sonicated with a bath-type sonicator for 15 minutes after which aliquots were immediately prepared and stored at −20° C. Prior to use, the solution was sonicated for one or two minutes, and then dilutions were prepared in 5% glucose.
Nine month-old beagles were obtained from Kawashima-shoji Co. Ltd., Gifu, Japan) and housed in stainless steel wire cages (W 800 mm×D 680 mm×H 680 mm; one dog per cage) in a room with a constant temperature of 20-24° C., humidity of 45-65%, and 12 hour light-dark cycle. The animals were provided with pellet food (DS, Oriental Yeast Co., Tokyo, Japan) and water ad libitum. LPS endotoxin (300 ng/0.1 ml/kg) was injected into the vein of the right foreleg at a rate of 1-2 ml/min, and E5564 was injected into the vein of the left foreleg at a rate of 10-20 ml/min.
Immediately before or 1, 2, or 4 hours after intravenous injection of LPS and E5564, 1.5 ml of blood was drawn from the left cephalic vein. One milliliter was transferred into a tube containing 10 U of heparin (Mochida Pharm. Co. Ltd., Tokyo, Japan), centrifuged (2000×g, 5 minutes, 4° C.), and the plasma was used for bioassays for TNF-α and IL-6.
Aliquots of the plasma were tested for TNF in a bioassay based on the TNF-dependent cell death of L-P3 cells in the presence of actinomycin D. The L-P3 cell line is more sensitive to TNF-induced cell death than the L-929 cell line that is more commonly used.

[2] = Pharmacokinetics in plasma after 72 hours intravenous infusion; conditions: beagle, dog
Procedure: Plasma levels of E5564 were determined during and after 72 hours of intravenous infusion of 0.03 mg/kg/hr E5564 (◯, ●), 0.1 mg/kg/hr E5564 (□, ▪), and 1 mg/kg/hr E5564 (Δ, ▴) into female (closed symbols) or male (open symbols) beagle dogs. At the indicated times, blood was drawn and analyzed for E5564 concentration by extraction and analysis by HPLC. Each value represents the mean±S.E.M. of three animals.

[3] = Pharmacokinetics in plasma after single bolus intravenous injection; conditions: dog
[4] = 0.1 mg/kg E5564 iv one hour before LPS 300 ng/kg iv
[5] = 0.1 mg/kg E5564 iv three hours before LPS 300 ng/kg iv

CCCCCC/C=C\CCCCCCCCCC(=O)N[C@H]1[C@H](OC[C@H]2O[C@H](OP(=O)(O)O)[C@H](NC(=O)CC(=O)CCCCCCCCCCC)[C@@H](OCCCCCCCCCC)[C@@H]2O)O[C@H](COC)[C@@H](OP(=O)(O)O)[C@@H]1OCC[C@@H](CCCCCCC)OC [E5564, α-D-Glucopyranose, 3-O-decyl-2-deoxy-6-O-[2-deoxy-3-O-[(3R)-3-methoxydecyl)-6-O-methyl-2-[[(11Z)-1-oxo-11-octadecenyl)amino]-4-O-phosphono-β-D-glucopyranosyl]-2-[(1,3-dioxotetradecyl)amino]-, 1-(dihydrogen phosphate)]
Activity of the endotoxin antagonist, % of its original activity ([1]; 0.1 mg/kg E5564, LPS administered three hours after E5564 dose): about 48% | TNF-α at 1 hr [1, 4]: 0 units/ml | TNF-α at 2 hr [1, 4]: 0 units/ml | TNF-α at 1 hr ([1]; 0.1 mg/kg E5564 iv simultaneously with LPS 300 ng/kg iv, n=4 dogs): 0 units/ml | TNF-α at 2 hr ([1]; 0.1 mg/kg E5564 iv simultaneously with LPS 300 ng/kg iv): 0 units/ml | TNF-α at 1 hr [1, 5]: 1353 ± 340 units/ml | TNF-α at 2 hr [1, 5]: 190 ± 113 units/ml | AUC(0-t) ([2]; female, 0.1 mg/kg): 790 ± 51 µg·h/mL | concentration at 72 h ([2]; female, 0.1 mg/kg): 10400 ± 930 ng/mL | half-life ([2]; female, 0.1 mg/kg): 40.9 ± 9.5 h | AUC(0-t) ([2]; female, 0.3 mg/kg): 2620 ± 737 µg·h/mL | concentration at 72 h ([2]; female, 0.3 mg/kg): 32400 ± 5720 ng/mL | half-life ([2]; female, 0.3 mg/kg): 38 ± 11.6 h | AUC(0-t) ([2]; female, 1 mg/kg): 29600 ± 1510 µg·h/mL | concentration at 72 h ([2]; female, 1 mg/kg): 394000 ± 14200 ng/mL | half-life ([2]; female, 1 mg/kg): 32 ± 2.8 h | AUC(0-t) ([2]; male, 0.1 mg/kg): 1070 ± 139 µg·h/mL | concentration at 72 h ([2]; male, 0.1 mg/kg): 13100 ± 1220 ng/mL | half-life ([2]; male, 0.1 mg/kg): 38.4 ± 4.5 h | AUC(0-t) ([2]; male, 0.3 mg/kg): 3310 ± 485 µg·h/mL | concentration at 72 h ([2]; male, 0.3 mg/kg): 41300 ± 7180 ng/mL | half-life ([2]; male, 0.3 mg/kg): 39.9 ± 11.2 h | AUC(0-t) ([2]; male, 1 mg/kg): 27100 ± 5740 µg·h/mL | concentration at 72 h ([2]; male, 1 mg/kg): 366000 ± 69300 ng/mL | half-life ([2]; male, 1 mg/kg): 35.1 ± 8.7 h | AUC ([3]; 0.1 mg/kg): 71.8 µg·h/mL | half-life ([3]; 0.1 mg/kg): 41.7 ± 2.7 h | AUC ([3]; 0.3 mg/kg): 271 ± 28.3 µg·h/mL | half-life ([3]; 0.3 mg/kg): 50.4 ± 2.2 h | AUC ([3]; 1 mg/kg): 744 µg·h/mL | half-life ([3]; 1 mg/kg): 46.4 ± 2.7 h
